Assays:
[1] = test system: murine peritoneal macrophages; assay: Respiratory burst (hydrogen peroxide generation), murine peritoneal macrophages; assay type: cell-based; conditions: alone and in response to PMA 10 ng/ml; 4 hours exposure
Method: The respiratory burst of leukocytes (macrophages and polymorphonuclear neutrophils) is one component of the mediator system used to kill bacteria. As with phagocytosis, the level of this respiratory burst activity in resident macrophages is low. […] Studies were conducted to assess the effect of in vitro exposure of murine or rat peritoneal macrophages and human peripheral blood mononuclear cells (PBMC) to various concentrations of AII on the capacity to generate hydrogen peroxide via the respiratory burst system. For the human studies, five different donors were examined.
The murine or rat peritoneal cells were harvested by lavage with 5-15 ml of cold PBS with 0.5% bovine serum albumin. The human PBMC were harvested by venipuncture from normal human volunteers and isolated from peripheral blood by Ficoll Hypaque density centrifugation. After isolation, the cells were resuspended at 1×10^6 cells/ml and placed at 100 μl per well into 96 well plates. The cells were incubated with various concentrations of AII or AII analogues for 4 hours at 37° C. The cells were then preloaded with a fluorescent probe for hydrogen peroxide, 2,7 dichlorofluorescein acetate, which is nonfluorescent in the absence of hydrogen peroxide. […] One hour after stimulation the level of fluorescence produced was measured on a Cytofluor 2350 multiwell fluorometer.

Human PBMC = assay: Proliferation of human PBMC, 3H-thymidine incorporation with or without pokeweed mitogen; assay type: cell-based; conditions: for Stimulation Index (SI): stimulated counts / counts without mitogen
Method: Upon stimulation of lymphocytes with mitogen or antigen, these cells undergo blastogenesis and proliferation. In the absence of such stimuli, proliferation is seldom observed. One method to measure cellular proliferation in a short term assay is via measurement of the amount of the nucleotide thymidine that is incorporated into newly synthesized DNA. The effect of AII on the proliferation of human PBMC in the presence and absence of pokeweed mitogen (“PWM”) was assessed.
Human PBMC were collected from normal volunteers and isolated via Ficoll Hypaque (Sigma Chemical, St. Louis) density centrifugation. After isolation of the buffy coat, the cells were washed 3× to remove the Ficoll Hypaque, counted in trypan blue (0.01%) and resuspended at a concentration of 1×10^6 cells/ml in RPMI 1640 containing 10% fetal calf serum and antibiotics. A 100 μl aliquot of cells was added to each well. Thereafter, various concentrations (0.1 to 1000 μg/ml final concentration) of AII in RPMI 1640 containing 10% FCS and antibiotics were added to various wells in triplicate. To the appropriate wells, PWM (20 μg/ml final concentration) was added. These plates were incubated at 37° C. in 5% CO2 for 48 hours. Subsequently, 0.5 μCi of ^3H-thymidine was added to each well, which were incubated at 37° C. for an additional 24 hours prior to harvest by a multiwell automated sample harvester (Skatron) onto glass fiber filters. These filters were dried, placed in scintillation fluid and the amount of thymidine incorporated was determined by beta counting.

murine HPC = assay: Murine HPC colony formation in the absence of colony stimulating factors; assay type: cell-based, C57B1/6 mice; conditions: 14 days
Method: HPC were harvested from C57B1/6 mice by immunomagnetic affinity chromatography and placed in semi-solid cultures with optimal growth medium in the absence of colony stimulating factors. At various times after initiation of culture, the formation of colonies and the size of the colonies (number of cells/colony) was assessed microscopically.
Female C57B1/6 mice were purchased from Simonson and used as a source of bone marrow cells in this study. The bone marrow was harvested from the femur and tibia of mice by flushing with phosphate buffered saline (PBS), pH 7.4, containing 2% fetal bovine serum (FBS) with a 21-gauge needle. The eluant from the flushing was centrifuged and the pellet was resuspended at 4×10^7 nucleated cells/ml in PBS containing PBS containing 2% FBS and 5% normal rat serum.
The reagents for immunomagnetic labeling were purchased from Stem Cell Technologies, Inc. (Vancouver, BC). Biotin-labeled monoclonal antibodies to the following murine lineage-specific cell surface antigens were included in a cocktail for HPC enrichment and used according to the manufacturer's instructions: CD5 (Ly-1), CD45-R (B220), CD11b (Mac-1), Myeloid Differentiation Antigen (Gr-1) and Erythroid Cells (TER 119) Ten μl of antibody cocktail was added to the bone marrow, mixed and allowed to incubate at 4° C. for 15 minutes. […]

[2] = test system: chick chorioallantoic membrane; conditions: in vivo; cited from earlier work

Question: For “Asp-Arg-Val-Tyr-Ile-His-Pro-Phe [AII, known pressor agent, commercially available]”, which “ability to generate hydrogen peroxide (respiratory burst)” value [1] is on record?
Answer: increased the ability of leukocytes to generate hydrogen peroxide

Question: And the “Stimulation Index (SI)” value (Human PBMC; AII Concentration 0.1, Experiment 1 (donor 1))?
Answer: 3.54

Question: What about the “Stimulation Index (SI)” value (Human PBMC; AII Concentration 0.1, Experiment 2 (donor 2)) of the same substance?
Answer: 38.13

Question: What about the “cpm 3H-Thymidine Incorporated” value (Human PBMC; AII Concentration 0.1, PWM, Experiment 1 (donor 1)) of the same substance?
Answer: 1329.0 cpm

Question: And the “cpm 3H-Thymidine Incorporated” value (Human PBMC; AII Concentration 0.1, PWM, Experiment 2 (donor 2))?
Answer: 2135.0 cpm

Question: What about the “Stimulation Index (SI)” value (Human PBMC; AII Concentration 1, Experiment 1 (donor 1)) of the same substance?
Answer: 5.88

Question: And the “Stimulation Index (SI)” value (Human PBMC; AII Concentration 1, Experiment 2 (donor 2))?
Answer: 62.42

Question: And the “cpm 3H-Thymidine Incorporated” value (Human PBMC; AII Concentration 1, PWM, Experiment 1 (donor 1))?
Answer: 1411.2 cpm

Question: And the “cpm 3H-Thymidine Incorporated” value (Human PBMC; AII Concentration 1, PWM, Experiment 2 (donor 2))?
Answer: 2996.0 cpm

Question: And the “Stimulation Index (SI)” value (Human PBMC; AII Concentration 10, Experiment 1 (donor 1))?
Answer: 5.34

Question: And the “Stimulation Index (SI)” value (Human PBMC; AII Concentration 10, Experiment 2 (donor 2))?
Answer: 75.88

Question: And the “cpm 3H-Thymidine Incorporated” value (Human PBMC; AII Concentration 10, PWM, Experiment 1 (donor 1))?
Answer: 1427.0 cpm

Question: And the “cpm 3H-Thymidine Incorporated” value (Human PBMC; AII Concentration 10, PWM, Experiment 2 (donor 2))?
Answer: 3946.0 cpm

Question: And the “Stimulation Index (SI)” value (Human PBMC; AII Concentration 100, Experiment 1 (donor 1))?
Answer: 11.41

Question: What about the “Stimulation Index (SI)” value (Human PBMC; AII Concentration 100, Experiment 2 (donor 2)) of the same substance?
Answer: 69.39

Question: And the “cpm 3H-Thymidine Incorporated” value (Human PBMC; AII Concentration 100, PWM, Experiment 1 (donor 1))?
Answer: 1552.1 cpm

Question: And the “cpm 3H-Thymidine Incorporated” value (Human PBMC; AII Concentration 100, PWM, Experiment 2 (donor 2))?
Answer: 3747.0 cpm

Question: What about the “Stimulation Index (SI)” value (Human PBMC; AII Concentration 1000, Experiment 1 (donor 1)) of the same substance?
Answer: 15.48

Question: And the “Stimulation Index (SI)” value (Human PBMC; AII Concentration 1000, Experiment 2 (donor 2))?
Answer: 89.63

Question: And the “cpm 3H-Thymidine Incorporated” value (Human PBMC; AII Concentration 1000, PWM, Experiment 1 (donor 1))?
Answer: 1551.5 cpm

Question: What about the “cpm 3H-Thymidine Incorporated” value (Human PBMC; AII Concentration 1000, PWM, Experiment 2 (donor 2)) of the same substance?
Answer: 4302.0 cpm

Question: What about the “thymidine incorporated in response to PWM” value (Human PBMC; PWM 20 μg/ml, two donors) of the same substance?
Answer: increase the amount of thymidine incorporated

Question: What about the thymidine incorporation (Human PBMC; absence of mitogen) of the same substance?
Answer: no increase in thymidine incorporation

Question: And the “HPC colony size / HPC proliferation” value (murine HPC)?
Answer: HPC colony size increases proportionately

Question: And the angiogenic activity [2]?
Answer: angiogenic

Source: patent US7744927B2, “Methods of promoting hematopoietic and mesenchymal cell proliferation and differentiation” (University of Southern California, priority 1997, dated 2010)
